Reference: ChEMBL document CHEMBL1152749, “Haemolytic activity, cytotoxicity and membrane cell permeabilization of semi-synthetic and natural lupane- and oleanane-type saponins” (Bioorg Med Chem, 2009)

Legend:
[1] = Cytotoxicity against human WS1 cells after 48 hrs by resazurin reduction test; type: cell-based; settings: WS1, 48 h
[2] = Toxicity in sheep erythrocytes assessed as induction of hemolysis; type: cell-based, Ovis aries, Erythrocyte; settings: read-out: HD50 (the source's name)
A549 [3] = assay: Cytotoxicity against human A549 cells after 48 hrs by resazurin reduction test; type: functional, cell-based; settings: A549, 48 h
[4] = Cell membrane permeabilization in human WS1 cells assessed as drug level causing decrease in calcein fluorescence; type: ADME, cell-based
A549 [5] = assay: Cell membrane permeabilization in human A549 cells assessed as drug level causing decrease in calcein fluorescence; type: ADME, cell-based
DLD-1 [6] = assay: Cell membrane permeabilization in human DLD1 cells assessed as drug level causing decrease in calcein fluorescence; type: ADME, cell-based
DLD-1 [7] = assay: Cytotoxicity against human DLD1 cells after 48 hrs by resazurin reduction test; type: functional, cell-based; settings: DLD-1, 48 h

Compound	IC50 [4]	IC50 (A549 [5])	IC50 (DLD-1 [6])	IC50 [1]	HC50 [2]	IC50 (A549 [3])	IC50 (DLD-1 [7])
C=C(C)[C@@H]1CC[C@]2(C(=O)O[C@@H]3O[C@H](CO)[C@@H](O)[C@H](O)[C@H]3O)CC[C@]3(C)[C@H](CC[C@@H]4[C@@]5(C)CC[C@H](O)C(C)(C)[C@@H]5CC[C@]43C)[C@@H]12	> 200 µM	> 200 µM	> 200 µM	–	> 100 µM	–	–
C=C(C)[C@@H]1CC[C@]2(CO[C@@H]3O[C@H](CO)[C@@H](O)[C@H](O)[C@H]3O)CC[C@]3(C)[C@H](CC[C@@H]4[C@@]5(C)CC[C@H](O[C@@H]6O[C@H](CO)[C@@H](O)[C@H](O)[C@H]6O)C(C)(C)[C@@H]5CC[C@]43C)[C@@H]12	> 200 µM	> 200 µM	> 200 µM	–	> 100 µM	–	–
C=C(C)[C@@H]1CC[C@]2(C(=O)O)CC[C@]3(C)[C@H](CC[C@@H]4[C@@]5(C)CC[C@H](O[C@@H]6O[C@H](CO)[C@H](O)[C@H](O)[C@H]6O)C(C)(C)[C@@H]5CC[C@]43C)[C@@H]12	> 200 µM	> 200 µM	> 200 µM	> 100 µM	> 100 µM	> 100 µM	> 100 µM
C=C(C)[C@@H]1CC[C@]2(C(=O)O)CC[C@]3(C)[C@H](CC[C@@H]4[C@@]5(C)CC[C@H](O[C@H]6O[C@H](CO)[C@@H](O)[C@H](O)[C@@H]6O)C(C)(C)[C@@H]5CC[C@]43C)[C@@H]12	> 200 µM	> 200 µM	> 200 µM	–	> 100 µM	–	–
C=C(C)[C@@H]1CC[C@]2(C(=O)O[C@@H]3O[C@H](CO)[C@@H](O)[C@H](O)[C@H]3O)CC[C@]3(C)[C@H](CC[C@@H]4[C@@]5(C)CC[C@H](O[C@@H]6O[C@H](CO)[C@@H](O)[C@H](O)[C@H]6O)C(C)(C)[C@@H]5CC[C@]43C)[C@@H]12	> 200 µM	> 200 µM	> 200 µM	–	> 100 µM	–	–
C=C(C)[C@@H]1CC[C@]2(C(=O)O)CC[C@]3(C)[C@H](CC[C@@H]4[C@@]5(C)CC[C@H](O)C(C)(C)[C@@H]5CC[C@]43C)[C@@H]12 [BETULINIC ACID]	> 200 µM	> 200 µM	> 200 µM	–	> 100 µM	–	–
C=C(C)[C@@H]1CC[C@]2(CO)CC[C@]3(C)[C@H](CC[C@@H]4[C@@]5(C)CC[C@H](O)C(C)(C)[C@@H]5CC[C@]43C)[C@@H]12 [BETULIN]	> 200 µM	> 200 µM	> 200 µM	–	> 100 µM	–	–
C=C(C)[C@@H]1CC[C@]2(CO)CC[C@]3(C)[C@H](CC[C@@H]4[C@@]5(C)CC[C@H](O[C@H]6O[C@H](CO)[C@@H](O)[C@H](O)[C@@H]6O)C(C)(C)[C@@H]5CC[C@]43C)[C@@H]12	> 200 µM	> 200 µM	> 200 µM	–	> 100 µM	–	–
C=C(C)[C@@H]1CC[C@]2(CO[C@@H]3O[C@H](CO)[C@@H](O)[C@H](O)[C@H]3O)CC[C@]3(C)[C@H](CC[C@@H]4[C@@]5(C)CC[C@H](O[C@@H]6O[C@@H](C)[C@H](O)[C@@H](O)[C@H]6O)C(C)(C)[C@@H]5CC[C@]43C)[C@@H]12	> 200 µM	> 200 µM	> 200 µM	–	> 100 µM	–	–

Now from value to compound, other results behind:

IC50 [4]	IC50 (A549 [5])	IC50 (DLD-1 [6])	Compound	IC50 [1]	HC50 [2]	IC50 (A549 [3])	IC50 (DLD-1 [7])
> 200 µM	> 200 µM	> 200 µM	CC1(C)CC[C@]2(C(=O)O)CC[C@]3(C)C(=CC[C@@H]4[C@@]5(C)CC[C@H](O)C(C)(C)[C@@H]5CC[C@]43C)[C@@H]2C1 [OLEANOLIC_ACID]	> 100 µM	> 100 µM	27 µM	> 100 µM
2.8 µM	3 µM	4 µM	C[C@@H]1O[C@@H](O[C@H]2[C@H](O[C@H]3CC[C@]4(C)[C@H]5CC=C6[C@@H]7CC(C)(C)CC[C@]7(C(=O)O)CC[C@@]6(C)[C@]5(C)CC[C@H]4C3(C)C)OC[C@H](O)[C@@H]2O)[C@H](O)[C@H](O)[C@H]1O	14 µM	2 µM	15 µM	30 µM
> 200 µM	> 200 µM	> 200 µM	C=C(C)[C@@H]1CC[C@]2(C(=O)O)CC[C@]3(C)[C@H](CC[C@@H]4[C@@]5(C)CC[C@H](O[C@@H]6OC[C@H](O[C@@H]7O[C@H](CO)[C@@H](O)[C@H](O)[C@H]7O)[C@H](O)[C@H]6O[C@@H]6O[C@@H](C)[C@H](O)[C@@H](O)[C@H]6O)C(C)(C)[C@@H]5CC[C@]43C)[C@@H]12	> 50 µM	94 µM	> 50 µM	> 50 µM
> 200 µM	> 200 µM	> 200 µM	C=C(C)[C@@H]1CC[C@]2(C(=O)O[C@@H]3O[C@@H](C)[C@H](O)[C@@H](O)[C@H]3O)CC[C@]3(C)[C@H](CC[C@@H]4[C@@]5(C)CC[C@H](O[C@@H]6O[C@@H](C)[C@H](O)[C@@H](O)[C@H]6O)C(C)(C)[C@@H]5CC[C@]43C)[C@@H]12	–	85 µM	–	–
> 200 µM	> 200 µM	> 200 µM	C=C(C)[C@@H]1CC[C@]2(CO[C@@H]3O[C@@H](C)[C@H](O)[C@@H](O)[C@H]3O)CC[C@]3(C)[C@H](CC[C@@H]4[C@@]5(C)CC[C@H](O[C@@H]6O[C@@H](C)[C@H](O)[C@@H](O)[C@H]6O)C(C)(C)[C@@H]5CC[C@]43C)[C@@H]12	–	> 100 µM	–	–
> 200 µM	> 200 µM	> 200 µM	C=C(C)[C@@H]1CC[C@]2(C(=O)O)CC[C@]3(C)[C@H](CC[C@@H]4[C@@]5(C)CC[C@H](O[C@@H]6OC[C@@H](O)[C@H](O)[C@H]6O)C(C)(C)[C@@H]5CC[C@]43C)[C@@H]12	–	> 100 µM	–	–
> 200 µM	> 200 µM	> 200 µM	C=C(C)[C@@H]1CC[C@]2(C(=O)O[C@@H]3O[C@H](CO)[C@@H](O)[C@H](O)[C@H]3O)CC[C@]3(C)[C@H](CC[C@@H]4[C@@]5(C)CC[C@H](O[C@@H]6OC[C@H](O)[C@H](O)[C@H]6O)C(C)(C)[C@@H]5CC[C@]43C)[C@@H]12	–	> 100 µM	–	–
> 200 µM	> 200 µM	> 200 µM	C=C(C)[C@@H]1CC[C@]2(CO[C@@H]3O[C@H](CO)[C@@H](O)[C@H](O)[C@H]3O)CC[C@]3(C)[C@H](CC[C@@H]4[C@@]5(C)CC[C@H](O[C@@H]6OC[C@H](O)[C@H](O)[C@H]6O)C(C)(C)[C@@H]5CC[C@]43C)[C@@H]12	–	> 100 µM	–	–
> 200 µM	> 200 µM	> 200 µM	C=C(C)[C@@H]1CC[C@]2(C(=O)O[C@@H]3O[C@H](CO)[C@@H](O)[C@H](O)[C@H]3O)CC[C@]3(C)[C@H](CC[C@@H]4[C@@]5(C)CC[C@H](O[C@@H]6O[C@@H](C)[C@H](O)[C@@H](O)[C@H]6O)C(C)(C)[C@@H]5CC[C@]43C)[C@@H]12	–	> 100 µM	–	–
